Laboratory results reported in patent US20180280329A1, “INHIBITORS OF PLASMINOGEN FOR TREATING, REDUCING OR PREVENTING RADIATION-INDUCED INJURIES” (OMNIO AB, priority 2015, published 2018).

Tests used:
[1] = test system: TGF-β; experiment: Quantitative RT-PCR of irradiated skin: TGF-β mRNA; format: in vivo, mouse; details: irradiated WT mice, TXA in drinking water, day 9 after irradiation
Procedure: (§1) Skin samples were homogenized in TRIzol (Ambion) using Precellys CK28R tubes on a Precellys 24 homogenizer (both from Bertin Technologies, France) according to the manufacturer's instructions. Total RNA was extracted with PureLink RNA Mini Kit (Ambion) according to the manufacturer's instruction. 2.5 μg of total RNA was reverse transcribed using Superscript VILO cDNA synthesis kit (Invitrogen) and diluted 3 fold with DEPC-water. Expression of genes were analyzed using quantitative real-time PCR with Comparative CT method and with TBP mRNA as the internal reference gene. The gene-specific primers and probes (TaqMan Gene Expression Assays) were from Applied Biosytems, and 2× SsoAdvanced Universal Probes Supermix was from BIO-RAD. Each sample was run in triplicate on StepOnePlus Instrument (Applied Biosystems) using real-time PCR cycling conditions for 2× SsoAdvanced Universal Probes Supermix.
(§2) In this experiment, mice were treated as in Example 3, with the exception that TXA was given in drinking water in dose 700 mg/kg/day. Real-time PCR was performed as described in Example 3.

[2] = biological target: T1, plasminogen (Mus musculus, UniProt P20918); experiment: Burn wound model: plasminogen accumulation in wound skin extracts (ELISA); format: in vivo; details: WT mice, TXA 800 mg/kg injected three times at 8 h intervals, skin at 24 h after wounding, compared to mice treated with PBS
T1 construct: Burn wounds were introduced to three WT mice and TXA (800 mg/kg) was injected three times at 8 h intervals; from tissue; host or cells: skin of wild-type mice (burn wound), in vivo
Procedure: Dorsal skin samples from irradiated and not-irradiated control mice were homogenized in a lysis buffer (50 mM Tris-HCl buffer pH 8.0 with 120 mM NaCl, 1 mM EDTA, 6 mM EGTA, 1% NP-40 and 1 mM DTT) supplemented with PhosSTOP phosphatase inhibitors and Complete Ultra mini protease inhibitor cocktail tablets (both from Roche, Basel, Switzerland). The skin extracts were then kept at −20° C. until use. Total protein concentration in the extracts was quantified using Pierce BCA protein assay kit, according to the manufactural instruction (ThermoFisher Scientific, Waltham, U.S.A). Mouse IL-6 and TNF-alpha levels in the extracts were measured using specific ELISA kits from eBioscience (San Diego, U.S.A). Mouse plasminogen was quantified with a mouse plasminogen-specific ELISA (Omnio AB, Umeå, Sweden).
Mice were anesthetized with Dormicum/Hypnorm and burn wounds were made with a brass stave as described previously (Shen et al. 2012, Blood 119:5879). The mice were given a single injection of Temgesic (Schering-Plough, Brussels, Belgium) the day after burning. All mice were individually caged, and wounds were neither sutured nor dressed.
Initially, the burn wound model (Shen et al. 2012, Blood 119:5879) was used to test whether TXA has an effect on plasminogen accumulation in the wound. […]

[3] = test system: radiation-induced dermatitis; experiment: Radiation-induced dermatitis model (15 Gy to dorsal skin), radio-dermatitis documented by photos and scored; format: in vivo, mouse; details: for development and severity of radio-dermatitis: irradiated WT mice
Procedure: Dorsal skin of mice had been shaved 3 days prior to irradiation. For the irradiation, the mice were anesthetized by intraperitoneal injection of 150 μl mixture containing Ketaminol vet. (Intervet AB, Sollentuna, Sweden) and Dormitor vet. (Orion Pharma AB, Espoo, Finland). Mice were laid into a lead box to protect the whole body from irradiation, while the dorsal skin was gently stretched out through a 4 cm-long gap in the bottom of the box and maintained with medical tape. Irradiation box with a mouse was then placed in Gammacell 40 exactor (Ashford, UK) that has two Caesium-137 sources. Irradiation was given as a single dose of 1 Gy per minute over 15 min (total dose 15 Gy).
Digital photographs of the dorsal skin were taken on the specified days after irradiation. The wound size was quantified using Image J (National Institute of Mental Health, Bethesda, Md.). Severity of radio-dermatitis was scored, with the scores defined as: 0=normal, 1=erythema, 2=desquamation, 3=ulcer.
WT and plg^+/− were intraperitoneally injected with 800 mg/kg of TXA in PBS three times per day. The injections started 2 days before the irradiation and continued for 15 days after the irradiation. Development of dermatitis was documented by digital photos and skin samples were analyzed as described in Example 2.
as §2

[4] = test system: IL-6; experiment: Quantitative RT-PCR of irradiated skin: IL-6 mRNA; format: in vivo, mouse; details: irradiated WT mice, TXA in drinking water, day 9 after irradiation
Procedure: as §1, §2

[5] = test system: IL-1β; experiment: Quantitative RT-PCR of irradiated skin: IL-1β mRNA; format: in vivo, mouse; details: irradiated WT mice, TXA in drinking water, day 9 after irradiation
Procedure: as §1, §2

[6] = test system: PAI-1; experiment: Quantitative RT-PCR of irradiated skin: PAI-1 mRNA; format: in vivo, mouse; details: irradiated WT mice, TXA in drinking water, day 9 after irradiation
Procedure: as §1, §2

T1 sequence (P20918 20-812 limits assumed): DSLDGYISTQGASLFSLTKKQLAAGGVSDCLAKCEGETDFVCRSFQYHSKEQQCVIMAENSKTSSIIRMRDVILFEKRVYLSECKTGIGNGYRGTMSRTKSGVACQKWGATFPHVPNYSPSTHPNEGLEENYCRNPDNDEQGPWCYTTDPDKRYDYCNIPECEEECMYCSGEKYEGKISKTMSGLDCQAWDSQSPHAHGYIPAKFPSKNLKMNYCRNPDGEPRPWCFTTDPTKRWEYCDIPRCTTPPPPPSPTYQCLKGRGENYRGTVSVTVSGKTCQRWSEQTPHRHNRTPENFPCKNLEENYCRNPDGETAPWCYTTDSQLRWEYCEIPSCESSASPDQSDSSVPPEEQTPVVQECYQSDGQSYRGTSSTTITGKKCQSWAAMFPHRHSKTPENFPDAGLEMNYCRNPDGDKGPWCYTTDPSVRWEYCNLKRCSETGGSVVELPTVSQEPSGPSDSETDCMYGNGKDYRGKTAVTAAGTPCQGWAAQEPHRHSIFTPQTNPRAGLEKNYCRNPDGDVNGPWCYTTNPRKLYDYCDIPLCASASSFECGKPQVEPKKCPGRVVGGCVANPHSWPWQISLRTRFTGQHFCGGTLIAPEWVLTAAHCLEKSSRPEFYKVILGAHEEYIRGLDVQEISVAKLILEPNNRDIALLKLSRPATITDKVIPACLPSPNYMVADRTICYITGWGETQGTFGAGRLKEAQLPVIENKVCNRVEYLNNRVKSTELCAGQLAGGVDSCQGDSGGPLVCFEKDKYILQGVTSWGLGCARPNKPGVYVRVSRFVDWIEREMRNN

In the case of `NC[C@H]1CC[C@H](C(=O)O)CC1` [TXA, trans-4 (aminomethyl) cyclohexanecarboxylic acid], the “expression of TGF-β in skin” value [1] is reported as “decreased expression”, the “inhibition of plasminogen accumulation in wounds” value [2] is reported as 50% and the “development and severity of radio-dermatitis” value ([3]; TXA 800 mg/kg intraperitoneally three times per day, from 2 days before to 15 days after irradiation, vs carrier) is reported as “delayed development of dermatitis and with a lower severity”. The “development and severity of radio-dermatitis” value ([3]; TXA in drinking water 700 mg/kg/day, vs control WT mice treated with water only) was “significant delay in development of radio-dermatitis and a lower severity of skin damage”, the development of radio-dermatitis ([3]; irradiated plg+/- mice, TXA 800 mg/kg intraperitoneally three times per day, from 2 days before to 15 days after irradiation) was “completely blocked” and the formation of radiodermatitis ([3]; irradiated plg+/- mice, TXA in drinking water 700 mg/kg/day) was “totally inhibited formation of radiodermatitis”. For the same molecule, the “expression of IL-6 in skin” value [4] was “decreased expression”, the “level of IL-1β expression in skin” value [5] was “very low” and the “expression of PAI-1 in skin” value [6] was “decreased expression”.
